Reference: patent publication EP1247803A2, “Indolinone compounds suitable for modulation of protein kinases” (Sugen, Inc., priority 1996, dated 1998)

Key:
MET = MET biochemical kinase assay; parameters: species or system human; concentration or dose not given beside the values
Procedure, shortened: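 Lysate-derived MET, or chimeric receptors, is immobilised on plates through an antibody to the human MET cytoplasmic region. Compounds are added along with kinase buffer supplying ATP and divalent metal ions, and receptor autophosphorylation is quantified by anti-phosphotyrosine ELISA.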

PDGF-R = PDGF-R (Homo sapiens, UniProt P09619); experiment: PDGF-R ELISA; format: cell-based
Sequence of PDGF-R (P09619 33-1106, species assumed): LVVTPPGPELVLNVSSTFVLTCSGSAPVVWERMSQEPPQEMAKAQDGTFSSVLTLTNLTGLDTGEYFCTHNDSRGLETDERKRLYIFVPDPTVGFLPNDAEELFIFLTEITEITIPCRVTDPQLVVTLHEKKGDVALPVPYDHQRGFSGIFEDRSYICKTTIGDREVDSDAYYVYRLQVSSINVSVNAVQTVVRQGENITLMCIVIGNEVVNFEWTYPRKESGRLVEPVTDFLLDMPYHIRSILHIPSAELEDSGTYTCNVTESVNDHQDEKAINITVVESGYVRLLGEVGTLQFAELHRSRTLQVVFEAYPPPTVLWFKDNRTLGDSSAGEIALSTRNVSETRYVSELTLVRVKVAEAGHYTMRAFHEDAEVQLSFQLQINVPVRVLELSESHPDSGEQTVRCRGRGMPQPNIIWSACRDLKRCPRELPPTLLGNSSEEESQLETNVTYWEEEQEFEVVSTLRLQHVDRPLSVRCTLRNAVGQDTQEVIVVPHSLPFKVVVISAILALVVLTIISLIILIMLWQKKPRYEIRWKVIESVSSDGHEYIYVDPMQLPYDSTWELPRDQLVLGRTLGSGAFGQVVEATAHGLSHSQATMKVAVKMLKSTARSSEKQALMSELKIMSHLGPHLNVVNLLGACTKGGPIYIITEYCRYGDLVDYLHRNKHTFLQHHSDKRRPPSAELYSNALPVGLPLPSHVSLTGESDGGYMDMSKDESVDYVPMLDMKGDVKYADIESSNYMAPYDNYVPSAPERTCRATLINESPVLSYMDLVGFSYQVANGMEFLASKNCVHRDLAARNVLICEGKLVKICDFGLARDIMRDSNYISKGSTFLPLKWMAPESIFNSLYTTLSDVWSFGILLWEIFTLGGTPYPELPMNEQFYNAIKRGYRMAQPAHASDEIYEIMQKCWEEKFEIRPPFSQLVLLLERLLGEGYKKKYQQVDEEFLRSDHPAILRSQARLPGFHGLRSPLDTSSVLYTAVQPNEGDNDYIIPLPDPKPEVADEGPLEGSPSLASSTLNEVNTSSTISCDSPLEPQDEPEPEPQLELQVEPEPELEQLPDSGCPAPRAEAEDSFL
Source text: A PDGF-R ELISA is described in International Patent Publication No. WO 96/40116, published December 19, 1996 by Tang et al.

FLK-1 receptor = target: T1, FLK-1 receptor (Mus musculus, UniProt P35918); experiment: FLK-1 ELISA (kinase activity of the FLK-1 receptor in FLK-1/NIH3T3 cells, VEGF stimulated); format: cell-based; parameters: concentration or dose not given beside the values
T1 construct: expressed in transfected cells; host or cells: NIH3T3 C7#3
T1 sequence (P35918 20-1345): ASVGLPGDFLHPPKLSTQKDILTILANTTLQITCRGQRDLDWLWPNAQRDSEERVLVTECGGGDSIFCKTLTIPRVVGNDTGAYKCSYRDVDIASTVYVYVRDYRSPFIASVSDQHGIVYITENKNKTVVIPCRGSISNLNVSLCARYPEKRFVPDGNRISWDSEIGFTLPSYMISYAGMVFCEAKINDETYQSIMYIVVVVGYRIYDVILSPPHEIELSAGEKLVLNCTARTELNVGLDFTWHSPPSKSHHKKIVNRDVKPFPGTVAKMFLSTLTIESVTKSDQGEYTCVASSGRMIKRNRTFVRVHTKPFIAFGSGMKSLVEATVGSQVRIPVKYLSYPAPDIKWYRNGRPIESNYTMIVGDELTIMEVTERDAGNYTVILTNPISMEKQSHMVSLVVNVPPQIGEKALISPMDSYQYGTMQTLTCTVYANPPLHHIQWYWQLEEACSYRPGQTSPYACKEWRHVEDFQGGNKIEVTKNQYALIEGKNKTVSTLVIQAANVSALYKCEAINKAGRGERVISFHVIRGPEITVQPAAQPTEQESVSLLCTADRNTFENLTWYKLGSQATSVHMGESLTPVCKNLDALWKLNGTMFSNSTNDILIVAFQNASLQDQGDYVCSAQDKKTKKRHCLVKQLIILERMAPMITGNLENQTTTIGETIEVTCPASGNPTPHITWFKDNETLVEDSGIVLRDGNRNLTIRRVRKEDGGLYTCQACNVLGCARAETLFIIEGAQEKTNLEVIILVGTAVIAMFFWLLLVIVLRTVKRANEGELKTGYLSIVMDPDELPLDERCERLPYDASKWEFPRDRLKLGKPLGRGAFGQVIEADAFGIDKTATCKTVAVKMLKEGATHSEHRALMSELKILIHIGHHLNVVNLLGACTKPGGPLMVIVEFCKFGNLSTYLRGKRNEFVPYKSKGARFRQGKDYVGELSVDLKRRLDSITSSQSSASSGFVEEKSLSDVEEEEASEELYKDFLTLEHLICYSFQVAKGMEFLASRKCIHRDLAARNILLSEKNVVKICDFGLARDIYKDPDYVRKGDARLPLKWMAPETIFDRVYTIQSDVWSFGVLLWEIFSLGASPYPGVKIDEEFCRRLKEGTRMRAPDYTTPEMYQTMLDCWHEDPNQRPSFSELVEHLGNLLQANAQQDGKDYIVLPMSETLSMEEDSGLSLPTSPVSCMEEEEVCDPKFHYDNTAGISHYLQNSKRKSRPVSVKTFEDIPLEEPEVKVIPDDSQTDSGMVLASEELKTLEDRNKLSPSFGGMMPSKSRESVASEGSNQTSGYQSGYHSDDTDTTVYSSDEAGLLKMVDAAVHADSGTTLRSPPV
Procedure, shortened: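 NIH3T3 C7#3 cells expressing FLK-1 were seeded at 25.000 cells/well, serum-starved overnight in 0.1% FBS, then treated with compound for two hours at 37°C (final DMSO 0.5%) before VEGF stimulation. Receptor was captured on anti-rabbit IgG-coated ELISA plates bearing affinity-purified anti-FLK-1 antiserum.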

Compound	Met Kinase % Inhibition (MET) [%]	PDGF Kinase %Inhibition (PDGF-R) [%]	Fik Kinase %Inhibition (FLK-1 receptor) [%]
O=C1Nc2c(Br)cc(Br)cc2C1=Cc1cc(Br)ccc1O [10733/A09]	22.1	-7.6	-11.9
O=C1Nc2ccc(S(=O)(=O)N3CCOCC3)cc2C1=CC(c1cccs1)C(F)(F)F (stereo not drawn) [10732/F02]	55.6	-9.4	7.0
O=C1Nc2ccc(I)cc2C1=Cc1cc(Br)ccc1O [10733/B09]	64.5	7.0	-2.6
COc1cc(Br)cc(C=C2C(=O)Nc3c(Br)cc(Br)cc32)c1O [10733/A08]	27.2	-10.1	-17.1
Cc1cc(C=C2C(=O)Nc3c(Br)cc(Br)cc32)cc(C)c1OCc1ccccc1 [10733/A07]	27.2	-12.9	-27.4
COc1ccc(C=C2C(=O)Nc3ccc(CCCl)cc32)cc1C(C)(C)C [10732/G05]	15.2	15.4	17.2
COc1c(I)cc(C=C2C(=O)Nc3ccc(S(=O)(=O)N4CCOCC4)cc32)cc1C(C)(C)C [10732/F11]	75.2	77.5	21.9
COc1c([N+](=O)[O-])cc(C=C2C(=O)Nc3ccc(Br)c(C)c32)cc1C(C)(C)C [10733/C03]	29.3	28.1	17.0
COc1c([N+](=O)[O-])cc(C=C2C(=O)Nc3c(Br)cc(Br)cc32)cc1C(C)(C)C [10733/A03]	24.9	23.2	45.0
COc1c(C(C)(C)C)cc(C=C2C(=O)Nc3ccc(Br)c(C)c32)cc1C(C)(C)C [10733/C04]	18.4	19.2	8.4
CC(C)(C)c1cc(C=C2C(=O)Nc3ccc(S(=O)(=O)N4CCOCC4)cc32)cc(Cl)c1OCc1ccccc1 [10732/F10]	65.1	15.9	14.1
COc1c(Br)cc(C=C2C(=O)Nc3ccc(S(=O)(=O)N4CCOCC4)cc32)cc1C(C)(C)C [10732/F07]	65.5	38.6	31.0
CNS(=O)(=O)c1ccc2c(c1)C(=Cc1cc(I)c(OC)c(C(C)(C)C)c1)C(=O)N2 [10732/D11]	48.6	18.9	18.8
O=C1Nc2c(Br)cc(Br)cc2C1=Cc1cc([N+](=O)[O-])ccc1O [10733/A10]	21.1	-13.3	-9.3
CC(C)(C)c1cc(C=C2C(=O)Nc3ccc(CCCl)cc32)ccc1OCc1ccccc1 [10732/G06]	16.2	0.2	26.5
COc1c(C(C)C)cc(C=C2C(=O)Nc3ccc(S(=O)(=O)N4CCOCC4)cc32)cc1C(C)C [10732/F03]	68.6	51.8	31.9
CNS(=O)(=O)c1ccc2c(c1)C(=Cc1ccc(O)c(OC)c1[N+](=O)[O-])C(=O)N2 [10733/D11]	31.6	-4.0	1.0
COc1ccc(C=C2C(=O)Nc3ccc(S(=O)(=O)Nc4ccc(C(F)(F)F)cc4)cc32)cc1C(C)(C)C [10732/E05]	2.2	41.1	18.7
COc1c(Cl)cc(C=C2C(=O)Nc3ccc(S(=O)(=O)N4CCOCC4)cc32)cc1C(C)(C)C [10732/F09]	79.7	25.5	25.6
COc1cc(Br)cc(C=C2C(=O)Nc3ccc(I)cc32)c1O [10733/B08]	65.5	-15.7	-16.0
CC(C)c1cc(C=C2C(=O)Nc3ccc(S(=O)(=O)Nc4ccc(C(F)(F)F)cc4)cc32)cc(C(C)C)c1Oc1ccccc1 [10732/E04]	8.2	29.5	15.8
CNS(=O)(=O)c1ccc2c(c1)C(=Cc1cc(C)c(OC)c(C)c1)C(=O)N2 [10733/D06]	-19.4	1.3	17.9
CC(C)c1cc(C=C2C(=O)Nc3ccc(CCCl)cc32)cc(C(C)C)c1Oc1ccccc1 [10732/G04]	24.9	25.0	12.6

Compound	Met Kinase % Inhibition (MET) [%]	PDGF Kinase %Inhibition (PDGF-R) [%]	Fik Kinase %Inhibition (FLK-1 receptor) [%]
Cc1cc(C=C2C(=O)Nc3ccc(I)cc32)cc(C)c1OCc1ccccc1 [10733/B07]	73.5	4.2	1.2
CNS(=O)(=O)c1ccc2c(c1)C(=Cc1cc(C(C)(C)C)c(OC)c(C(C)(C)C)c1)C(=O)N2 [10733/D04]	37.7	26.5	15.5
CNS(=O)(=O)c1ccc2c(c1)C(=Cc1cc(I)c(OCc3ccccc3)c(C(C)(C)C)c1)C(=O)N2 [10733/D02]	63.4	17.6	3.1
CNS(=O)(=O)c1ccc2c(c1)C(=Cc1cc(C)c(OCc3ccccc3)c(C)c1)C(=O)N2 [10733/D07]	-6.8	0.9	-1.4
Cc1c(Br)ccc2c1C(=Cc1cc(I)c(OCc3ccccc3)c(C(C)(C)C)c1)C(=O)N2 [10733/C02]	71.8	15.1	5.8
CC(C)(C)c1cc(C=C2C(=O)Nc3ccc(CCCl)cc32)cc(Br)c1OCc1ccccc1 [10732/G08]	44.7	37.6	10.0
COc1c(Cl)cc(C=C2C(=O)Nc3ccc(CCCl)cc32)cc1C(C)(C)C [10732/G09]	33.9	9.8	16.9
Cc1c(Br)ccc2c1C(=Cc1cc(Br)ccc1O)C(=O)N2 [10733/C09]	16.3	91.9	-18.0
Cc1c(Br)ccc2c1C(=Cc1cc([N+](=O)[O-])ccc1O)C(=O)N2 [10733/C10]	20.5	-6.4	-7.6
CC(C)(C)c1cc(C=C2C(=O)Nc3ccc(S(=O)(=O)Nc4ccc(C(F)(F)F)cc4)cc32)ccc1OCc1ccccc1 [10732/E06]	-2.1	16.9	2.8
CC(C)(C)c1cc(C=C2C(=O)Nc3ccc(S(=O)(=O)N4CCOCC4)cc32)cc(Br)c1OCc1ccccc1 [10732/F08]	76.6	14.9	12.6
CNS(=O)(=O)c1ccc2c(c1)C(=Cc1cc(Br)ccc1O)C(=O)N2 [10733/D09]	38.7	33.8	9.8
COc1c(I)cc(C=C2C(=O)Nc3ccc(S(=O)(=O)Nc4ccc(C(F)(F)F)cc4)cc32)cc1C(C)(C)C [10732/E11]	41.4	47.7	16.2
COc1c(C)cc(C=C2C(=O)Nc3ccc(I)cc32)cc1C [10733/B06]	71.4	-9.2	4.6
CC(C)(C)c1cc(C=C2C(=O)Nc3ccc(I)cc32)cc(I)c1OCc1ccccc1 [10733/B02]	74.6	14.7	-7.4
CNS(=O)(=O)c1ccc2c(c1)C(=Cc1cc(C(C)(C)C)c(OCc3ccccc3)c(C(C)(C)C)c1)C(=O)N2 [10733/D05]	25.1	16.8	16.5
COc1c(O)ccc(C=C2C(=O)Nc3c(Br)cc(Br)cc32)c1[N+](=O)[O-] [10733/A11]	43.5	4.2	15.0
O=C1Nc2ccc(I)cc2C1=Cc1cc([N+](=O)[O-])ccc1O [10733/B10]	65.1	-59.6	5.7
CC(C)(C)c1cc(C=C2C(=O)Nc3c(Br)cc(Br)cc32)cc(I)c1OCc1ccccc1 [10733/A02]	74.6	11.5	-5.2
O=C1Nc2ccc(CCCl)cc2C1=CC(c1cccs1)C(F)(F)F (stereo not drawn) [10732/G02]	39.5	10.3	8.1
O=C1Nc2ccc(S(=O)(=O)Nc3ccc(C(F)(F)F)cc3)cc2C1=CC(c1cccs1)C(F)(F)F (stereo not drawn) [10732/E02]	33.3	4.8	13.1
CC(C)(C)c1cc(C=C2C(=O)Nc3ccc(CCCl)cc32)cc(Cl)c1OCc1ccccc1 [10732/G10]	45.7	20.4	14.0
